Source: US20190249218A1, “Method, Medium and Kit for Detecting Multiple Aminoglycoside Resistance Including 16S rRNA Methylase Mediated Resistance in Gram-Negative Bacteria” (priority 2016, published 2019)
Values after ≈ are worked out from the molar mass of the structure shown. Where two headings read alike, the source gives them in different places.

System: E. coli
Experiment: MIC by broth microdilution
Type: cell-based, Escherichia coli
Details: for MIC: Escherichia coli, read-out: MIC
Method: MICs of amikacin and gentamicin were determined using the broth microdilution method in cation-adjusted Mueller-Hinton broth, as recommended by the Clinical Laboratory Standard Institute (CLSI) guidelines (8). Amikacin and gentamicin sulfate (Fluorochem, Dertbyshire, UK) were tested over a range of dilutions from 0.25 to 256 μg/ml. A final inoculum of 5.10^5 CFU/ml of each strain was distributed in the 96 wells tray (Sarstedt, Ntimbrecht, Germany). All experiments were repeated in triplicate and E. coli ATCC 25922 was used as quality control. According to the CLSI breakpoints (9), Enterobacteriaceae isolates with gentamicin MICs≤4 and amikacin MICs≤16 mg/L were categorized as susceptible, while those with gentamicin MICs≥16 and amikacin MICs≥64 mg/L were categorized as resistant.
MICs of amikacin and gentamicin were determined as described above in Example 1.

[1] = isolate 92/31, E. coli, AAC(3)-IV
[2] = isolate 390, E. coli, AAC(3)-IV
[3] = isolate 1054 (first entry), E. coli, AAC(6′)-I
[4] = isolate 1054 (second entry), E. coli, AAC(6′)-I
[5] = isolate 1488, E. coli, AAC(6′)-II
[6] = isolate 4000, E. coli, APH(3′)-I + AAC(3)-V
[7] = isolate 22089, E. coli, AAC(3)-I + AAC(3)-V
[8] = isolate 122971, E. coli, ANT(2″)
[9] = isolate R1436, E. coli, AG susceptible
[10] = isolate R1438, E. coli, AG susceptible
[11] = isolate R4100, E. coli TOP10, npmA
[12] = isolate RP4, E. coli, APH(3′)-Ib
[13] = isolate pFCT1163, E. coli, AAC(6′)-Ia

Q: What does the source list for `NCC[C@H](O)C(=O)N[C@@H]1C[C@H](N)[C@@H](O[C@H]2O[C@H](CN)[C@@H](O)[C@H](O)[C@H]2O)[C@H](O)[C@H]1O[C@H]1O[C@H](CO)[C@@H](O)[C@H](N)[C@H]1O` [Amikacin]?
A: MIC (ATCC25922, isolate FR136, E. coli ATCC 25922, AG susceptible): 2 µg/mL (≈ 3.42 µM); MIC (ATCC25922, strain R2298, E. coli ATCC 25922, susceptible): 2 µg/mL (≈ 3.42 µM); MIC (ATCC35218, isolate R2278, E. coli ATCC 35218, AG susceptible): 4 µg/mL (≈ 6.83 µM); MIC (ATCC35218, strain R2278, E. coli ATCC 35218, susceptible): 4 µg/mL (≈ 6.83 µM); MIC (isolate 62Carb, E. coli, rmtB): > 256 µg/mL; MIC [1]: 4 µg/mL (≈ 6.83 µM); MIC (isolate 97, E. coli, AAC(3)-IV): 2 µg/mL (≈ 3.42 µM); MIC [2]: 16 µg/mL (≈ 27.3 µM); MIC [3]: 8 µg/mL (≈ 13.7 µM); MIC [4]: 16 µg/mL (≈ 27.3 µM); MIC [5]: 4 µg/mL (≈ 6.83 µM); MIC [6]: 4 µg/mL; MIC [7]: 16 µg/mL; MIC [8]: 4 µg/mL (≈ 6.83 µM); MIC (isolate E28, E. coli, rmtB): > 256 µg/mL; MIC (isolate R107, E. coli, rmtB): > 256 µg/mL; MIC (isolate R1012, E. coli, armA): > 256 µg/mL; MIC [9]: 2 µg/mL (≈ 3.42 µM); MIC [10]: 2 µg/mL (≈ 3.42 µM); MIC [11]: 128 µg/mL (≈ 219 µM); MIC [12]: 1 µg/mL (≈ 1.71 µM); MIC [13]: 128 µg/mL (≈ 219 µM); MIC (isolate pFCT4392, E. coli, AAC(3)-Ia): 1 µg/mL (≈ 1.71 µM); MIC (isolate pWP701, E. coli, AAC(3)-IV): 1 µg/mL (≈ 1.71 µM); MIC (strain 62Carb, E. coli, rmtB): > 512 µg/mL; MIC (strain 92/31, E. coli, AAC(3)-IV): 4 µg/mL (≈ 6.83 µM); MIC (strain 97, E. coli, AAC(3)-IV): 2 µg/mL (≈ 3.42 µM); MIC (strain 390, E. coli, AAC(3)-IV): 16 µg/mL (≈ 27.3 µM); MIC (strain 1054a, E. coli, AAC(6′)-I): 8 µg/mL (≈ 13.7 µM); MIC (strain 1054b, E. coli, AAC(6′)-I): 16 µg/mL (≈ 27.3 µM); MIC (strain 1488, E. coli, AAC(6′)-II): 4 µg/mL (≈ 6.83 µM); MIC (strain 4000, E. coli, APH(3′)-I + AAC(3)-V): 4 µg/mL; MIC (strain 22089, E. coli, AAC(3)-I + AAC(3)-V): 16 µg/mL; MIC (strain 122971, E. coli, ANT(2″)): 4 µg/mL (≈ 6.83 µM); MIC (strain E28, E. coli, rmtB): > 512 µg/mL; MIC (strain R107, E. coli, rmtB): > 512 µg/mL; MIC (strain R1012, E. coli, armA): > 512 µg/mL; MIC (strain R1436, E. coli, susceptible): 2 µg/mL (≈ 3.42 µM); MIC (strain R1438, E. coli, susceptible): 2 µg/mL (≈ 3.42 µM); MIC (strain R4100, E. coli, npmA): 258 µg/mL (≈ 441 µM); MIC (strain RP4, E. coli, APH(3′)-Ib): 1 µg/mL (≈ 1.71 µM); MIC (strain pFCT1163, E. coli, AAC(6′)-Ia): 128 µg/mL (≈ 219 µM); MIC (strain pFCT4392, E. coli, AAC(3)-Ia): 1 µg/mL (≈ 1.71 µM); MIC (strain pWP701, E. coli, AAC(3)-IV): 1 µg/mL (≈ 1.71 µM); Amikacin Phenotype (isolate 62Carb, E. coli, rmtB): R (amikacin MICs≥64 mg/L were categorized as resistant); Amikacin Phenotype [1]: S (amikacin MICs≤16 mg/L were categorized as susceptible); Amikacin Phenotype (isolate 97, E. coli, AAC(3)-IV): S (amikacin MICs≤16 mg/L were categorized as susceptible); Amikacin Phenotype [2]: S (amikacin MICs≤16 mg/L were categorized as susceptible); Amikacin Phenotype [3]: S (amikacin MICs≤16 mg/L were categorized as susceptible); Amikacin Phenotype [4]: S (amikacin MICs≤16 mg/L were categorized as susceptible); Amikacin Phenotype [5]: S (amikacin MICs≤16 mg/L were categorized as susceptible); Amikacin Phenotype [6]: S (amikacin MICs≤16 mg/L were categorized as susceptible); Amikacin Phenotype [7]: S (amikacin MICs≤16 mg/L were categorized as susceptible); Amikacin Phenotype [8]: S (amikacin MICs≤16 mg/L were categorized as susceptible); Amikacin Phenotype (isolate E28, E. coli, rmtB): R (amikacin MICs≥64 mg/L were categorized as resistant); Amikacin Phenotype (isolate FR136, E. coli ATCC 25922, AG susceptible): S (amikacin MICs≤16 mg/L were categorized as susceptible); Amikacin Phenotype (isolate R107, E. coli, rmtB): R (amikacin MICs≥64 mg/L were categorized as resistant); Amikacin Phenotype (isolate R262, E. coli, rmtC): R (amikacin MICs≥64 mg/L were categorized as resistant); Amikacin Phenotype (isolate R451, E. coli, rmtC): R (amikacin MICs≥64 mg/L were categorized as resistant); Amikacin Phenotype (isolate R989, E. coli, armA): R (amikacin MICs≥64 mg/L were categorized as resistant); Amikacin Phenotype (isolate R990, E. coli, rmtB): R (amikacin MICs≥64 mg/L were categorized as resistant); Amikacin Phenotype (isolate R1012, E. coli, armA): R (amikacin MICs≥64 mg/L were categorized as resistant); Amikacin Phenotype [9]: S (amikacin MICs≤16 mg/L were categorized as susceptible); Amikacin Phenotype [10]: S (amikacin MICs≤16 mg/L were categorized as susceptible); Amikacin Phenotype (isolate R2278, E. coli ATCC 35218, AG susceptible): S (amikacin MICs≤16 mg/L were categorized as susceptible); Amikacin Phenotype [11]: R (amikacin MICs≥64 mg/L were categorized as resistant); Amikacin Phenotype [12]: S (amikacin MICs≤16 mg/L were categorized as susceptible); Amikacin Phenotype [13]: R (amikacin MICs≥64 mg/L were categorized as resistant)
